Measured values: patent US20100331363A1, “TREATMENT OF MITOCHONDRIAL DISORDERS USING A FARNESYL TRANSFERASE INHIBITOR” (Link Medicine Corporation, priority 2008, published 2010)
Entries after “also recorded” stand apart in the source; their conditions may differ. Read-outs that look alike come from different tables or passages of the source.

Experiments:
LC3 mRNA = LC3 mRNA (qPCR) in SH-SY5Y cells; format: cell-based, human
Description: (§1) Cell culture and immunocytochemistry: SH-SY5Y cells were grown in DMEM medium supplemented with 10% FBS and 1% pen/strep at 37° C. and 5% CO2. Cells were differentiated with 10 μM retinoic acid for 48 hr, then treated with the either rapamycin (100 nM or 1 μM) or with 100 nM of either LNK-754-TS or Tipifarnib for 48-72 hr. Cells were then fixed with 4% paraformaldehyde and stained for LC3 (Novus biological, NB100-2331, dilution 1:800) followed by secondary Alexa-564 anti-Rabbit (A-11011).
Quantitative real-time PCR: Gene expression profiles were done by qPCR on series of known autophagy genes. RNA was extracted with Tri-reagent (Sigma), and cDNAs generated using iScript (Biorad). qPCR analysis was carried out in a 96 well plate using an iCycler (BioRad, Hercules, Calif.), and iQ SYBR Green Supermix (Biorad) according to the manufacturer's specifications.
Such increases in LC3 mRNA levels are associated in the literature with stimulation of macroautophagy. This supports the hypothesis that at doses as low as 1 nM in this in vitro system there is stimulation of autophagy in these cells.
(§2) Autophagy was measured in a neuroblastoma cell culture system by three distinct approaches: quantitation of autophagy-related mRNA's, immunofluorescence microscopy of autophagosomes, and biochemical detection of the microtubule-associated protein 1 light chain 3 (LC3) a key protein that is required for autophagosome formation. Differentiated human neuroblastoma cells (SH-SY5Y) were treated for 72 hr with LNK-754-TS (0.01-100 nM), Zarnestra® (also referred to herein as tipifarnib) (100 nM) or rapamycin (1 μM).

[1] = 3T3H-ras (61 L) xenograft tumor-bearing athymic mouse, continuous infusion 7 days, PK/PD; format: in vivo; conditions: intravenous, calculated from minimal continuous serum level of 100 ng/ml, read-out: minimal efficacious AUC
Source text: FIG. 3 provides pharmacokinetic and pharmacodynamic data for continuously infused LNK-754 (CP-609,754) in a 3T3H-ras (61 L) xenograft tumor-bearing athymic mouse (7 day treatment). […] From Pfizer Investigational New Drug Application for CP-609,754, Section 8, Pharmacology and Toxicology, dated Nov. 19, 1999. See also Moulder et al., Clinical Cancer Research 10:7127-7135, Nov. 1, 2004.
Further data supporting the stark difference in dosing levels for efficacy in oncology and synucleinopathies is shown in FIG. 3 and Table 2A below. In the experiment shown in FIG. 3, a xenograft model is once again used, but there is continuous infusion of LNK-754-TS, and thus a steady state concentration of drug in the plasma and tissues.
In the experimental data represented in Table 2A, a different method of drug delivery is used (oral) than in the experiment represented in FIG. 3. The best way to compare the relative coverage of the two delivery methods (oral and continuous infusion) is by comparing area-under-the-curve (AUC) values. We can compare the calculated AUC values for the continuous infusion oncology study presented in FIG. 3 and the AUC values associated with the synuclein model doses in the table. […] The AUCs of orally dosed LNK-754-TS at 0.9 mg/kg and at 0.09 mg/kg QD are 34.6 and […], respectively.

Ras = experiment: Inhibition of Ras farnesylation in SH-SY5Y cells; format: cell-based, human; conditions: continuous exposure over long periods, average
[2] = tested on: p70 S6 kinase (S6K) phosphorylation, mTOR pathway; experiment: p70 S6 kinase phosphorylation in SH-SY5Y cells; format: cell-based, human; conditions: SH-SY5Y (FIG. 8f)
Source text: Rapamycin is a well-characterized autophagy stimulator that acts through inhibition of mTOR, a kinase involved in nutrient signaling and regulation of cell growth and survival.

[3] = tested on: LC3-positive puncta (autophagosomes); experiment: LC3 immunostaining (LC3-positive puncta) in SH-SY5Y cells; format: cell-based, human; conditions: 100 nM, SH-SY5Y (FIG. 8b)
Description: as §1, §2

[4] = tested on: APP processing and secretion; experiment: APP processing and secretion in a cell culture model of pathogenic Aβ production; format: cell-based
Source text: Finally, it is important to note that LNK-754-TS had no effect on APP processing and secretion in a cell culture model of pathogenic Aβ production (Selkoe, D. J., et al. Ann N Y Acad Sci 777, 57-64 (1996)).

[5] = tested on: 3T3H-ras (61 L) xenograft; conditions: cited from earlier work
FTase = FTase (Homo sapiens, UniProt P49354+P49356); experiment: Table 5A in vitro FTI (H-Ras, K-Ras protein) and Ki FTase; format: biochemical
Source text: The selectivity of LNK-754 for FTase over GGTAse is shown below in Table 5A.

INS-1 cells = experiment: Whole cell mitochondrial fusion assay (paGFP) in INS-1 cells; format: cell-based; conditions: 1 nM, 48 hours
Source text: Mitochondrial dynamics is necessary for the maintenance of bioenergetic functions and maintenance of homogenous population of mitochondria. Mutations in Mfn2 and Opal have been implicated in neuropathies. A whole cell fusion assay was used to evaluate the effect of LNK-754 on the enhancement of mitochondrial fusion and fission events. Photo-activateable GFP is used to label and follow an individual mitochondrion. Photo-activatable GFP becomes fluorescent only after absorbing UV light. Mitochondria undergo frequent fusion and fission. During fusion, the labeled mitochondrion passes fluorescent GFP to a neighboring unlabeled mitochondrion (Molina and Shirihai, […], 2009). […] The following assay protocol was followed: paGFP expression was carried out using adenoviral transduction if INS-1 cells. The cells were treated for 48 hours with 1 nM LNK-754. Mitochondria were labeled with TMRE to facilitate tagging. UV pulse was delivered by two-photon laser. Z-stacks of individual cells were taken every 5 minutes for 30 minutes. Three separate runs were performed over 3 weeks at imaging facilities.

INS1 cells = experiment: Palmitate-induced cell death of INS1 cells, propidium iodide flow cytometry; format: cell-based; conditions: low dose; palmitate 18 hours, compound last 12 hours
Description: LNK-754 was tested using a cell death assay to determine whether it had any effect on palmitate-induced cell death. For Example, one example of such an assay is as follows: INS1 cells were incubated in control medium or in medium containing palmitate for 18 hours and either rapamycin or LNK-754 at 0.25 nM, 0.5 nM, 1 nM, 10 nM, and 100 nM were added for the last 12 hours. At the end of the incubation, the cells were washed with PBS and stained with 1 μg/ml propidium iodide (e.g., Molecular Probes, P3566). FACS data analysis was performed and cell debris was excluded. […] At low dose, LNK-754 behaves similar to rapamycin.

Compound	LC3 transcript (LC3 mRNA; 0.01-100 nM, 72 hr, differentiated SH-SY5Y (FIG. 8a))	levels of mRNA of LC3 (LC3 mRNA; between 1 and 100 nM, SH-SY5Y, 72 hours (FIG. 4))	AUC [1]	IC50 (Ras)	phosphorylation of p70 S6 kinase (S6K) [2]	number of LC3-positive puncta [3]	APP processing and secretion [4]	efficacy against tumor growth ([5]; 25 mg/kg, lowest dose tested)	dose required for suppression of tumor growth ([5]; 10 days BID, 3T3H-ras (61 L) xenograft athymic mouse)	Ki (FTase)	GGTI/FTI (H-Ras) (FTase; ratio)	GGTI/FTI (K-Ras) (FTase; ratio)	IC50 (FTase; read-out: H-Ras protein CLVS in vitro FTI)	IC50 (FTase; read-out: K-Ras protein CVIM in vitro FTI)	mitochondrial dynamics (fusion and fission) (INS-1 cells)	palmitate-induced cell death (INS1 cells)
C#Cc1cccc(-c2cc(=O)n(C)c3ccc([C@](O)(c4ccc(Cl)cc4)c4cncn4C)cc23)c1 [LNK-754-TS, (R)-6-[(4-chlorophenyl)-hydroxyl-(1-methyl-1-H-imidazol-5-yl)-methyl]-4-(3-ethynylphenyl)-1-methyl-2-(1H)-quinonlinone (2S, 3S)-dihydroxybutanedioate]	upregulated; also recorded: increased	significant increases	~2400 ng·h/mL	1 nM	did not inhibit phosphorylation	distinct increase; also recorded: increased	no effect	borderline efficacy	at least 25 mg per kg	–	–	–	–	–	–	–
C#Cc1cccc(-c2cc(=O)n(C)c3ccc([C@](O)(c4ccc(Cl)cc4)c4cncn4C)cc23)c1 [LNK-754, (R)-6-[(4-chlorophenyl)-hydroxyl-(1-methyl-1-H-imidazol-5-yl)-methyl]-4-(3-ethynylphenyl)-1-methyl-2-(1H)-quinonlinone]	–	–	–	–	–	–	–	–	–	< 0.05 nM	580	40.11	0.9 nM	72 nM	promotes mitochondrial dynamics	protects INS1 cells from palmitate toxicity
